A short description of the assay: Biochemical Characterization of Cif Inhibitors: The first step in characterizing the two compounds identified by high throughput screening was to verify that the inhibition was reproducible using fresh preparations. Chemical libraries are often stored for extended periods of time, which can lead to breakdown products contributing to the assay outcome. While the inhibition observed with a fresh ….

This passage reports IC50 results from ChEMBL document CHEMBL5727102, “Compounds and methods for inhibiting Cif virulence factor” (2019).

A word on the IC50: it is the concentration at which inhibition is half-maximal.

SMILES strings stand for the structures.

`NC(Cc1cc(I)c(Oc2cc(I)c(O)c(I)c2)c(I)c1)C(=O)O` (stereo unspecified) [THYROXINE] returned a concentration for half-maximal inhibition (IC50) above 100 µM.
